Key:
VEGF-A = experiment: Western blot of VEGF-A protein in retina of OIR mice (PBS control group and FUT-175 treated group); format: in vivo, mouse; details: retina total protein
[1] = system: retinal neovascularization (视网膜新生血管); experiment: Oxygen-induced retinopathy (OIR) mouse model; retinal flat mount with FITC-conjugated isolectin-B4, fluorescence microscopy of retinal neovascularization at P17; format: in vivo

## N=C(N)c1ccc2cc(OC(=O)c3ccc(N=C(N)N)cc3)ccc2c1 [甲磺酸萘莫司他]
VEGF-A; C3aR and C5aR knockout
  VEGF-A expression change: 无检测到VEGF-A的表达变化
VEGF-A; C57BL/6J
  VEGF-A protein expression: 可调节VEGF-A的蛋白表达
[1]; C3aR-/- and C5aR-/- mice, same OIR treatment
  change in retinal neovascularization growth after injection: 变化并不明显
[1]; C57BL/6J mice, OIR (75% oxygen from P7 for 5 d), 50 mg/kg i.p. daily from P12, evaluated at P17
  fundus vessel growth: 血管生长趋于正常
[1]; C57BL/6J mice, OIR (75% oxygen from P7 for 5 d), 50 mg/kg i.p. daily from P12, evaluated at P17, fluorescence microscopy
  inhibition of RNV growth: 能够明显抑制RNV的生长

— CN102743371A, “一种治疗视网膜新生血管性疾病的药物” (SPECIALTY OF OPHTHALMOLOGY RESEARCH INSTITUTE SHANDONG PROV, priority 2012, dated 2012)
